Series [1] has as its system Plasmodium falciparum (FCR-3). Nature of the series: Antimalarial activity against Plasmodium falciparum FCR-3. Type of series: cell-based. The note with it: FCR3, FCR-3 strain.
The nature of series [2]: Cytotoxicity SRB assay (HeLa). Type of series: cell-based. The note with it: human, HeLa cells, read-out: Cytotox SRB (HeLa) IC50.
For series [3] the following is noted: in vivo; cited from earlier work.
Series [4] concerns P. falciparum strains resistant to Pyr and CG. The note with it: even against strains highly resistant to other DHFR inhibitors; cited from earlier work.

A value given as a limit tells only on which side of the number the result lay.

In series [1], `CC1(C)N=C(N)N=C(N)N1c1ccc(Cl)cc1` [No. 1, Cycloguanil, reference compound] returned an IC50 of 8.15 ± 4.13 µM. `NC1=NC(c2ccccc2)N(Cc2ccc(Cl)c(Cl)c2)C(N)=N1` (stereo not shown) [No. 2] came in with an IC50 in series [1] of 4.32 ± 1.19 µM.

On to `NC1=NC(c2ccccc2)N(CCc2ccc(Cl)cc2)C(N)=N1` (stereo not shown) [No. 3], for which the IC50 in series [1] was determined as 7.16 ± 0.626 µM. For the compound `NC1=NC(c2ccccc2)N(CCc2ccc(Cl)c(Cl)c2)C(N)=N1` (stereo not shown) [No. 4], half-maximal inhibition in series [1] (IC50) was put at 4.77 ± 0.297 µM. Turning to `NC1=NC(c2ccccc2)N(CCOc2ccc(Cl)cc2)C(N)=N1` (stereo not shown) [No. 5], the IC50 in series [1] was 4.83 ± 0.689 µM. `NC1=NC(c2ccccc2)N(CCOc2ccc(Cl)c(Cl)c2)C(N)=N1` (stereo not shown) [No. 6] gave an IC50 in series [1] of 2.12 ± 0.75 µM. In turn, `NC1=NC(c2ccccc2Cl)N(CCCCOc2ccc(Cl)c(Cl)c2)C(N)=N1` (stereo not shown) [No. 7] yielded an IC50 in series [1] of 2.57 ± 0.7 µM.

`NC1=NC(c2ccccc2)N(CCCOc2ccc(Cl)cc2)C(N)=N1` (stereo not shown) [No. 8]: the IC50 in series [1] was 0.055 ± 0.01 µM; in series [2] it was 39 µM.

On to `NC1=NC(c2ccccc2)N(CCCOc2ccc(Cl)c(Cl)c2)C(N)=N1` (stereo not shown) [No. 9], for which the IC50 came to 0.0398 ± 0.01 µM in series [1] and 33.5 µM in series [2]. On to `NC1=NC(c2ccc(C(F)(F)F)cc2)N(CCCOc2ccc(Cl)cc2)C(N)=N1` (stereo not shown) [No. 10], for which the IC50 in series [1] came out at 3.37 ± 0.168 µM; in series [2] it was 11 µM.

Turning to `NC1=NC(c2ccccc2)N(CCCOc2ccc(Cl)cc2Cl)C(N)=N1` (stereo not shown) [No. 11], the IC50 came to 0.000151 ± 7.9e-05 µM in series [1] and 32.6 µM in series [2]. For `NC1=NC(c2ccccc2)N(CCCOc2cccc(C(F)(F)F)c2)C(N)=N1` (stereo not shown) [No. 12], the IC50 in series [1] came out at 0.0307 ± 0.0102 µM; in series [2] it was 14.2 µM. For `COc1ccc(OCCCN2C(N)=NC(N)=NC2c2ccccc2)cc1` (stereo not shown) [No. 13], in that order: 0.0603 ± 0.0087 µM and 253 µM. Consider `NC1=NC(c2ccccc2)N(CCCOc2ccccc2F)C(N)=N1` (stereo not shown) [No. 14], for which the IC50 in series [1] stood at 0.525 ± 0.0762 µM; in series [2], 67.6 µM. For `NC1=NC(c2ccccc2)N(CCCOc2ccccc2Cl)C(N)=N1` (stereo not shown) [No. 15], the IC50 in series [1] amounted to 0.171 ± 0.027 µM; in series [2], 88.8 µM. The compound `NC1=NC(c2ccccc2)N(CCCOc2ccc(F)cc2)C(N)=N1` (stereo not shown) [No. 16] displayed an IC50 in series [1] of 0.395 ± 0.109 µM. In turn, `NC1=NC(c2ccccc2)N(CCCOc2ccc(C(F)(F)F)cc2)C(N)=N1` (stereo not shown) [No. 17] showed an IC50 in series [1] of 0.0444 ± 0.0068 µM. With `NC1=NC(c2ccccc2Cl)N(CCCOc2ccc(Cl)cc2)C(N)=N1` (stereo not shown) [No. 18], the IC50 in series [1] was found to be 0.859 µM; in series [2], 15.7 µM.

On to `COc1ccc(C2N=C(N)N=C(N)N2CCCOc2ccc(Cl)cc2)cc1` (stereo not shown) [No. 19], for which the half-maximal inhibitory concentration (IC50) came out at 0.046 ± 0.017 µM in series [1] and 25 µM in series [2]. Regarding `NC1=NC(c2ccc(Cl)c(F)c2)N(CCCOc2ccc(Cl)cc2)C(N)=N1` (stereo not shown) [No. 20], the IC50 in series [1] was found to be 1.59 µM; in series [2], 13.7 µM. For `NC1=NC(c2cccc(Cl)c2)N(CCCOc2ccc(Cl)cc2)C(N)=N1` (stereo not shown) [No. 21], in that order: 0.156 ± 0.012 µM and 14.1 µM. `NC1=NC(c2ccc(F)cc2)N(CCCOc2ccc(Cl)cc2)C(N)=N1` (stereo not shown) [No. 22]: in series [1], the midpoint of inhibition, the IC50, lay at 0.155 ± 0.048 µM. Consider `NC1=NC(c2ccccc2F)N(CCCOc2ccc(Cl)cc2)C(N)=N1` (stereo not shown) [No. 23], for which the values for the IC50 in series [1] and in series [2] were 0.412 ± 0.08 µM and 52.2 µM, respectively.

In the case of `NC1=NC(c2ccccc2C(F)(F)F)N(CCCOc2ccc(Cl)cc2)C(N)=N1` (stereo not shown) [No. 24], the IC50 was 3.24 ± 0.451 µM in series [1] and 19 µM in series [2].

Turning to `NC1=NC(c2ccc(C(F)(F)F)cc2)N(CCCOc2ccc(Cl)c(Cl)c2)C(N)=N1` (stereo not shown) [No. 25], the results for the IC50 in series [1] and in series [2] were 4.53 ± 0.631 µM and 13.1 µM, respectively. `NC1=NC(c2ccccc2C(F)(F)F)N(CCCOc2ccc(Cl)c(Cl)c2)C(N)=N1` (stereo not shown) [No. 26]: the IC50 in series [1] was determined as 3.06 ± 0.042 µM; in series [2] it was 11.8 µM. In the case of `NC1=NC(c2cc(Cl)ccc2Cl)N(CCCOc2ccc(Cl)cc2)C(N)=N1` (stereo not shown) [No. 27], the half-maximal inhibitory concentration (IC50) amounted to 0.926 ± 0.128 µM in series [1] and 10.9 µM in series [2]. `NC1=NC(c2ccccc2F)N(CCCOc2ccc(Cl)c(Cl)c2)C(N)=N1` (stereo not shown) [No. 28]: the IC50 in series [1] worked out at 0.337 ± 0.095 µM; in series [2], 29.5 µM. For the compound `NC1=NC(c2ccc(F)cc2)N(CCCOc2ccc(Cl)c(Cl)c2)C(N)=N1` (stereo not shown) [No. 29], 35.8 ± 8.97 µM corresponded to half-maximal inhibition in series [1] (IC50). `NC1=NC(c2ccc(Cl)c(F)c2)N(CCCOc2ccc(Cl)c(Cl)c2)C(N)=N1` (stereo not shown) [No. 30]: the IC50 worked out at 0.591 ± 0.077 µM in series [1] and 14.5 µM in series [2].

Regarding `NC1=NC(c2ccccc2Cl)N(CCCOc2ccc(Cl)c(Cl)c2)C(N)=N1` (stereo not shown) [No. 31], the IC50 turned out to be 8.61 ± 0.998 µM in series [1] and 13.7 µM in series [2]. As to `NC1=NC(c2ccc(Cl)cc2)N(CCCOc2ccc(Cl)cc2)C(N)=N1` (stereo not shown) [No. 32], the IC50 was 0.156 ± 0.129 µM in series [1] and 15.6 µM in series [2]. Regarding `NC1=NC(c2cccc(Cl)c2F)N(CCCOc2ccc(Cl)cc2)C(N)=N1` (stereo not shown) [No. 33], the IC50 was 0.679 ± 0.221 µM in series [1] and 23 µM in series [2].

Turning to `NC1=NC(c2ccc(Cl)cc2)N(CCCOc2ccc(Cl)c(Cl)c2)C(N)=N1` (stereo not shown) [No. 34], the IC50 came out at 0.061 ± 0.036 µM in series [1] and 13.4 µM in series [2]. In the case of `NC1=NC(c2cccc(Cl)c2F)N(CCCOc2ccc(Cl)c(Cl)c2)C(N)=N1` (stereo not shown) [No. 35], the IC50 turned out to be 0.098 ± 0.005 µM in series [1] and 13.6 µM in series [2].

In series [1], `NC1=NC(c2ccc(SC(F)(F)F)cc2)N(CCCOc2ccc(Cl)cc2)C(N)=N1` (stereo not shown) [No. 36] yielded an IC50 of 2.39 ± 0.03 µM. Turning to `COc1cccc(C2N=C(N)N=C(N)N2CCCOc2ccc(Cl)cc2)c1F` (stereo not shown) [No. 37], the IC50 in series [1] was found to be 0.077 ± 0.032 µM; in series [2] it was 33.3 µM.

`NC1=NC(c2ccc(F)cc2F)N(CCCOc2ccc(Cl)cc2)C(N)=N1` (stereo not shown) [No. 38]: the results for the IC50 in series [1] and in series [2] were 0.163 ± 0.05 µM and 31.8 µM, respectively.

Regarding `NC1=NC(c2ccc(Cl)cc2Cl)N(CCCOc2ccc(Cl)cc2)C(N)=N1` (stereo not shown) [No. 39], the IC50 is 2.51 ± 0.667 µM in series [1] and 12.1 µM in series [2]. Regarding `NC1=NC(c2cccc(OC(F)(F)F)c2)N(CCCOc2ccc(Cl)cc2)C(N)=N1` (stereo not shown) [No. 40], the IC50 in series [1] is more than 50 µM. With `Cc1cccc(C2N=C(N)N=C(N)N2CCCOc2ccc(Cl)cc2)c1` (stereo not shown) [No. 41], the IC50 in series [1] was found to be 0.05 ± 0.04 µM. For `COc1cc(C)ccc1OCCCN1C(N)=NC(N)=NC1c1ccccc1` (stereo not shown) [No. 42], in series [1], the IC50 turned out to be 0.047 ± 0.01 µM. `NC1=NC(c2ccccc2)N(CCCOc2ccc(Br)cc2)C(N)=N1` (stereo not shown) [No. 43] returned an IC50 in series [1] of 0.024 ± 0.017 µM.

On to `NC1=NC(c2ccc(C(F)(F)F)cc2)N(CCCCCOc2ccc(Cl)cc2)C(N)=N1` (stereo not shown) [No. 44], for which, in series [1], half-maximal inhibition (IC50) required 3.98 ± 0.612 µM. For `CC1(C)N=C(N)N=C(N)N1OCCCOc1cc(Cl)c(Cl)cc1Cl` [WR99210], the “gastrointestinal (GI) tolerability” value in series [3] was “unacceptable”. For the same compound, the “effective concentration in vitro” value in series [4] is given as “nanomolar (nM) range”.

The values above are taken from patent US8940892B2, “Triazine derivatives for use in the treatment of malaria” (CSIR, priority 2009, dated 2015).
